Test results: the supplement of paper PMC11665569

How the values were obtained:
Experiment in all cases: relative viability (fraction of vehicle control); higher = more viable / less inhibited
Details in all cases: treatment time: 5 days
KYSE410 = tested on: KYSE410
Procedure: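 CCK-8 viability of KYSE410 cells transfected with control, YAP/TAZ or TEAD1-4 siRNAs and treated with KRAS G12C inhibitors for 5 days. Values are normalised to vehicle control.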

H2030 = tested on: H2030
Procedure: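 CCK-8 viability of H2030 cells transfected with control, YAP/TAZ or TEAD1-4 siRNAs and treated with KRAS G12C inhibitors for 5 days. Values are normalised to vehicle control.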

SW1573 = tested on: SW1573
Procedure: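 CCK-8 viability of SW1573 cells transfected with control, YAP/TAZ or TEAD1-4 siRNAs and treated with KRAS G12C inhibitors for 5 days. Values are normalised to vehicle control.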

C=CC(=O)N1CCN(c2nc(=O)n(-c3c(C)ccnc3C(C)C)c3nc(-c4c(O)cccc4F)c(F)cc23)[C@@H](C)C1 [AMG510]
relative viability
Details | H2030 | KYSE410 | SW1573
log10 concentration (uM): 0, siRNA knockdown: TEAD1-4 siRNA 1 | 0.446 | 0.586 | 0.313
log10 concentration (uM): 0, siRNA knockdown: TEAD1-4 siRNA 2 | 0.411 | 0.488 | 0.433
log10 concentration (uM): 0, siRNA knockdown: YAP/TAZ siRNA 1 | 0.25 | 0.416 | 0.262
log10 concentration (uM): 0, siRNA knockdown: YAP/TAZ siRNA 2 | 0.224 | 0.353 | 0.182
log10 concentration (uM): 0, siRNA knockdown: negative control siRNA | 0.714 | 0.695 | 0.809
log10 concentration (uM): 1, siRNA knockdown: TEAD1-4 siRNA 1 | 0.345 | 0.181 | 0.397
log10 concentration (uM): 1, siRNA knockdown: TEAD1-4 siRNA 2 | 0.325 | 0.118 | 0.515
log10 concentration (uM): 1, siRNA knockdown: YAP/TAZ siRNA 1 | 0.257 | 0.141 | 0.554
log10 concentration (uM): 1, siRNA knockdown: YAP/TAZ siRNA 2 | 0.283 | 0.137 | 0.357
log10 concentration (uM): 1, siRNA knockdown: negative control siRNA | 0.56 | 0.382 | 0.782
log10 concentration (uM): 1.301029996, siRNA knockdown: TEAD1-4 siRNA 1 | 0.193 | 0.0525 | 0.138
log10 concentration (uM): 1.301029996, siRNA knockdown: TEAD1-4 siRNA 2 | 0.209 | 0.0471 | 0.288
log10 concentration (uM): 1.301029996, siRNA knockdown: YAP/TAZ siRNA 1 | 0.148 | 0.0378 | 0.337
log10 concentration (uM): 1.301029996, siRNA knockdown: YAP/TAZ siRNA 2 | 0.179 | 0.0518 | 0.257
log10 concentration (uM): 1.301029996, siRNA knockdown: negative control siRNA | 0.403 | 0.164 | 0.461
log10 concentration (uM): -1, siRNA knockdown: TEAD1-4 siRNA 1 | 0.504 | 0.691 | 0.338
log10 concentration (uM): -1, siRNA knockdown: TEAD1-4 siRNA 2 | 0.556 | 0.63 | 0.365
log10 concentration (uM): -1, siRNA knockdown: YAP/TAZ siRNA 1 | 0.181 | 0.59 | 0.164
log10 concentration (uM): -1, siRNA knockdown: YAP/TAZ siRNA 2 | 0.181 | 0.489 | 0.111
log10 concentration (uM): -1, siRNA knockdown: negative control siRNA | 0.737 | 0.749 | 0.783
log10 concentration (uM): -1.30103, siRNA knockdown: TEAD1-4 siRNA 1 | 0.514 | 0.727 | 0.346
log10 concentration (uM): -1.30103, siRNA knockdown: TEAD1-4 siRNA 2 | 0.445 | 0.664 | 0.421
log10 concentration (uM): -1.30103, siRNA knockdown: YAP/TAZ siRNA 1 | 0.207 | 0.643 | 0.183
log10 concentration (uM): -1.30103, siRNA knockdown: YAP/TAZ siRNA 2 | 0.212 | 0.522 | 0.147
log10 concentration (uM): -1.30103, siRNA knockdown: negative control siRNA | 0.773 | 0.775 | 0.792
log10 concentration (uM): -2, siRNA knockdown: TEAD1-4 siRNA 1 | 0.773 | 0.946 | 0.562
log10 concentration (uM): -2, siRNA knockdown: TEAD1-4 siRNA 2 | 0.606 | 1.02 | 0.502
log10 concentration (uM): -2, siRNA knockdown: YAP/TAZ siRNA 1 | 0.348 | 0.841 | 0.323
log10 concentration (uM): -2, siRNA knockdown: YAP/TAZ siRNA 2 | 0.333 | 0.713 | 0.244
log10 concentration (uM): -2, siRNA knockdown: negative control siRNA | 0.883 | 0.884 | 0.886
log10 concentration (uM): -2.30103, siRNA knockdown: TEAD1-4 siRNA 1 | 0.837 | 0.967 | 0.672
log10 concentration (uM): -2.30103, siRNA knockdown: TEAD1-4 siRNA 2 | 0.67 | 0.941 | 0.725
log10 concentration (uM): -2.30103, siRNA knockdown: YAP/TAZ siRNA 1 | 0.471 | 0.929 | 0.437
log10 concentration (uM): -2.30103, siRNA knockdown: YAP/TAZ siRNA 2 | 0.457 | 0.7753 | 0.37
log10 concentration (uM): -2.30103, siRNA knockdown: negative control siRNA | 0.909 | 0.9373 | 0.934
log10 concentration (uM): -3, siRNA knockdown: TEAD1-4 siRNA 1 | 0.939 | 1.21 | 0.815
log10 concentration (uM): -3, siRNA knockdown: TEAD1-4 siRNA 2 | 0.875 | 1.19 | 0.893
log10 concentration (uM): -3, siRNA knockdown: YAP/TAZ siRNA 1 | 0.812 | 0.996 | 0.615
log10 concentration (uM): -3, siRNA knockdown: YAP/TAZ siRNA 2 | 0.688 | 0.961 | 0.587
log10 concentration (uM): -3, siRNA knockdown: negative control siRNA | 0.969 | 0.953 | 1
log10 concentration (uM): -4, siRNA knockdown: TEAD1-4 siRNA 1 | 1.05 | 1.08 | 0.98
log10 concentration (uM): -4, siRNA knockdown: TEAD1-4 siRNA 2 | 0.914 | 1.32 | 0.974
log10 concentration (uM): -4, siRNA knockdown: YAP/TAZ siRNA 1 | 1.09 | 1.03 | 0.969
log10 concentration (uM): -4, siRNA knockdown: YAP/TAZ siRNA 2 | 1.04 | 0.998 | 0.928
log10 concentration (uM): -4, siRNA knockdown: negative control siRNA | 0.955 | 0.951 | 1.02
